# Laboratory results as given in publication PMC10953043, “Fluorogenic Granzyme A Substrates Enable Real‐Time Imaging of Adaptive Immune Cell Activity” (Angewandte Chemie (Weinheim an Der Bergstrasse, Germany), 2023).
# Biological target: T1, human GzmA (hGzmA), active recombinant (Homo sapiens, UniProt P12544)
# T1 construct: active recombinant enzyme (not the pro-form), dimeric
# T1 sequence (P12544 29-262): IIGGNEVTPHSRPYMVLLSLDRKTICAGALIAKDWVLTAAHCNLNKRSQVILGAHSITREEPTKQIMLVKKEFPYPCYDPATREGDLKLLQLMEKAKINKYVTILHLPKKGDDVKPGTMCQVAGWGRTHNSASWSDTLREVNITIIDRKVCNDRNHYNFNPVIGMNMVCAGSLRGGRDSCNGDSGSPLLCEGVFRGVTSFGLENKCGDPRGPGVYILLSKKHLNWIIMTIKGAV
# Assay: fluorogenic assay with compound […] as substrate
# Assay type: biochemical
# Settings: 100 μM inhibitor, 20 μM compound 9, 20 nM hGzmA, Tris buffer pH 8; covalent
smiles,measurement,value
"O=c1oc(Cl)c(Cl)c2ccccc12 [3,4‐dichloroisocoumarin]",% decrease of the fluorescence signal,> 90%
